# Reference: patent US7132422B2, “Sodium channel modulators” (Theravance, Inc., priority 2001, dated 2006)
# Tested on: spinal nerve ligation (SNL) rats
# Assay: In vivo pain model: spinal nerve ligation (SNL), 50% withdrawal threshold with von Frey filaments
# Settings: intraperitoneal dose of approximately 30 mg/kg
# Method: Male Sprague-Dawley rats (120–180 g, Harlan, Indianapolis, Ind.) are pre-screened to determine their baseline 50% withdrawal threshold using a set of von Frey filaments. The 50% withdrawal threshold for mechanical stimulation to the hind paw is determined by the up-down method described by Dixon W. J., Ann.
# An abrupt withdrawal of the foot during stimulation or immediately after the removal of stimulus is considered a positive response.
# Whenever there is a positive or negative response, the next weaker or stronger filament is applied, respectively. The test is continued until six stimuli after the first change in response has been obtained. […] In the cases where continuous positive or negative responses are observed all the way out to the end of the stimulus spectrum, values of 0.3 g or 15.0 g are assigned, respectively.
# After pre-screening, rats which display a 50% withdrawal threshold greater than 8 g are acceptable for surgery. The spinal nerve ligation (SNL) surgery is carried out as follows. Rats are anesthetized with inhaled Isoflurance and the left L5 and L6 spinal nerves are tightly ligated with 6-0 silk thread. Postoperatively, rats are placed under a heat lamp until motor function returns and then single-housed. At 5–7 days post surgery, rats are re-tested to determine their post-surgery 50% withdrawal threshold. Rats which consistently display (2 or more days) a 50% withdrawal threshold less than 4.5 g are considered acceptable for compound investigation.
# Compounds are formulated in saline for injection and pH adjusted with dilute sodium hydroxide. Groups sizes are normally 5 or 6 rats. […] At 1, 3, and 6 hours post administration, the 50% withdrawal threshold is determined by an investigator who is blinded to the treatment groups. If at 6 hours, some prolonged activity is present, i.e., 50% withdrawal thresholds greater than 8 g, then later timepoints may be attempted (normally at 12 and 24 hours). Compounds can also be administered orally to determine oral activity.
row,SMILES,effectiveness for treating pain / activity in the in vivo pain model
1,Cc1ccccc1OCC(C)(N)COc1ccccc1C [Compound 1],demonstrated effectiveness for treating pain
2,Cc1cccc(Cl)c1OCC(C)(N)COc1c(C)cccc1Cl [Compound 5],some activity
3,CC(N)(COc1c(F)cc(F)cc1F)COc1c(F)cc(F)cc1F [Compound 6],not active
4,Cc1ccccc1OCC(N)COc1ccccc1C [Compound 8],not active
5,Cc1cccc(C)c1OCC(N)COc1c(F)cc(F)cc1F (stereo not drawn) [Compound 11],some activity
6,Cc1cccc(C)c1OCC(COc1c(C)cccc1C)NCCc1ccncc1 [Compound 79],not active
